Patent US11054425B2, “System and method for identification and characterization of transglutaminase species” (Roche Sequencing Solutions, Inc., priority 2014, dated 2021)
No end group written: not given here. *: point of attachment. Cbz = O=C(OCc1ccccc1)*

How the values were obtained:
Assay type in all cases: biochemical, Kutzneria albida
[1] = tested on: KalbTG; experiment: 5-mer peptide array, lysine-substrate screening with biotinylated glutamine donor; conditions: incorporation of biotinylated glutamine-donor on 5-mer peptide array
Excerpt: A second round of maturation on the peptide array yielded […] (SEQ ID NO:24) as the top performing 9-mer substrate, which was then resynthesized as biotinylated peptide to act as acyl donor for the discovery of optimized lysine recognition motifs back on the 5-mer peptide array (FIG. 4B). Again, six of the best lysine-containing peptides were resynthesized and tested in the KalbTG in-solution activity assay using a peptide containing the optimized glutamine recognition sequence YRYRQ (SEQ ID NO:1) as an acyl donor (Table 2). It will be appreciated that calculation of an array signal for cadaverine was not applicable due to omission of cadaverine from the array.
(§1) For construction of the peptide array, a library of 1,360,732 unique 5-mer peptides was designed by using all combinations of 18 natural amino acids excluding cysteine and methionine, as well as any dimer or a longer repeat of the same amino acid, and any peptide containing a dipeptide selected from HR, RH, HK, KH, RK, KR, HP, and PQ sequences. The library was synthesized in duplicate on the same array by using maskless light-directed peptide array synthesis. Each 5-mer peptide was flanked on both the N-terminus and C-terminus by 3 amino acid-long linkers synthesized by using mixture of glycine and serine having a 3:1 ratio.
In order to test KalbTG specificity for lysine substrates, chemically synthesized Z-[[…] (SEQ ID NO:31)]-PEG-Biotin peptide—which includes the sequence […] (SEQ ID NO:31)—was used as a glutamine-containing substrate to biotinylate lysine-containing peptides. Array biotinylation was done as described above with 0.1 ng μl^−1 KalbTG, 0.8 μM peptide at 37° C. for 15 minutes. Note that the a “Z—” in front of a peptide or other like construct is used herein to represent a carboxybenzyl group unless stated otherwise.
Target sequence in this assay (as listed by the source): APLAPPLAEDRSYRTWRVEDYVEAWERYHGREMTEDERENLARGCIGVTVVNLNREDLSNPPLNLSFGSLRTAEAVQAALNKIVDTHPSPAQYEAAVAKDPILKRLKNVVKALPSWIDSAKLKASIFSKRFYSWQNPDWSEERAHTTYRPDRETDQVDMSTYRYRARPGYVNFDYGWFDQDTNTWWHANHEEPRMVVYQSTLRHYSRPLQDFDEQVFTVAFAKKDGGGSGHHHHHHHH

[2] = tested on: KalbTG; experiment: GLDH-coupled assay in solution (NADH oxidation); conditions: NADH oxidation at 340 nm, 37° C.
Description: KalbTG activity was obtained by measuring incorporation of a biotinylated amine-donor on the peptide array and rates of NADH oxidation at 340 nm and 37° C. in the presence of amine-donor substrate (500 μM) in the GLDH-coupled assay using 100 μM each of nine of the best-performing array-selected glutamine-containing substrates and of two S. mobaraensis MTG glutamine-containing substrates. […] Testing of the top sequences in Table 1 confirmed YRYRQ (SEQ ID NO: 1) and RYRQR (SEQ ID NO 14) as the top performing 5-mer substrates, with turnover rates of 3.52±0.08 pmol NADH s^−1 and 3.60±0.12 pmol NADH s^−1, respectively.
With reference to Table 2, KalbTG activity was obtained by measuring incorporation of a biotinylated glutamine-donor and rates of NADH oxidation at 340 nm and 37° C. in the presence of glutamine-donor substrate (200 μM) in the GLDH-coupled assay using 100 μM each of i) six of the top-performing array-selected lysine substrates, ii) cadaverine, and iii) preferred MTG lysine substrate ARSKL (SEQ ID NO:30). […] This is a small but significant increase over cadaverine (3.51±0.12 pmol s^−1) or ARSKL (SEQ ID NO:30) (3.87±0.31 pmol s^−1), a peptide previously established as a preferred MTG lysine donor motif on the peptide array. Additional details on the S. mobaraensis MTG substrate peptide ARSKL (SEQ ID NO:30) can be found in U.S. Provisional Patent Application Ser. No. 62/094,495 to Albert et al. filed on Dec. 19, 2014.
For the GLDH coupled assay, to determine whether the KalbTG peptides selected in the array assay were also preferred substrates in a solution reaction and to quantify cross-reactivity of KalbTG and S. mobaraensis MTG with various substrates, a continuous glutamate dehydrogenase (GLDH)-coupled assay for S. mobaraensis MTG activity (see Oteng-Pabi, et al., 2013. Analytical biochemistry 441(2): 169-173) was applied.
For glutamine substrate evaluation, the assay was performed in a transparent 96-well microtiter plate in the presence of 500 μM α-ketoglutarate, 500 μM or 1 mM cadaverine as Amine donor substituting for a lysine-containing peptide, 2 U ml^−1 of glutamate dehydrogenase (GLDH), 500 μM NADH and glutamine-containing substrate peptide (Z-[[…] (SEQ ID NO:77)], Z-[[…] (SEQ ID NO:78)], Z-[[…] (SEQ ID NO:75)], Z-[[…] (SEQ ID NO:79)], Z-[[…] (SEQ ID NO:80)], Z-[[…] (SEQ ID NO:81)], Z-[[…] (SEQ ID NO:82)], Z-[[…] (SEQ ID NO:83)], Z-[[…] (SEQ ID NO:84)], Z-[[…] (SEQ ID NO:85)], Z-[[…] (SEQ ID NO:86)], Z-[[…] (SEQ ID NO:76)] or Z-[[…] (SEQ ID NO:87)]) concentrations ranging between 0 and 1 mM in 200 mM MOPS, 1 mM EDTA pH 7.2 (total volume per well 200 μl).
For amine substrate evaluation, assay conditions were the same as for glutamine substrate evaluation with the exception that 100 μM each of amine substrate (Z-[[…] (SEQ ID NO:88)], Z-[[…] (SEQ ID NO:89)], Z-[[…] (SEQ ID NO:90)], Z-[[…] (SEQ ID NO:91)], Z-[[…] (SEQ ID NO:92)], Z-[[…] (SEQ ID NO:93)], Z-[[…] (SEQ ID NO:94)], Z-[[…] (SEQ ID NO:95)] or cadaverine) and 200 μM glutamine donor (Z-[[…] (SEQ ID NO:75)] or Z-[[…] (SEQ ID NO:76)]) were used.
Reactions were started by the addition of 5 μg ml^−1 of S. mobaraensis MTG or KalbTG and the oxidation of NADH was continuously recorded at 340 nm for 60 minutes using a Biotek Synergy H4 microplate reader, temperature controlled at 37° C., with short shaking intervals before each measurement. After a short lag phase where the GLDH was saturated by transglutaminase-mediated release of ammonia, linear rates of absorbance versus time corresponding to transglutaminase turnover were observed and subjected to Michaelis-Menten kinetic analysis. […]

[3] = tested on: KalbTG; experiment: 5-mer peptide array, glutamine-substrate screening with biotinylated amine donor; conditions: incorporation of biotinylated amine-donor on 5-mer peptide array
Description: To identify potential acyl-donor and amine-donor substrates of the K. albida transglutaminase, high-throughput screening on 5-mer peptide arrays was performed (FIGS. 4A and 4B). An activity of at least 1.65 U/mg for both the SlyD-fused and the mature KalbTG enzymes was confirmed by commercial assay (Zedira MTG-ANiTA-KIT; compared to 4.3 U mg^−1 by the MTG supplied with the kit and a 0.07 U/mg blank value with BSA). The assay used β-casein as a cross-linking substrate and detected deamidation by a glutamate dehydrogenase dependent oxidation of NADPH. Specific recognition motifs were identified by assaying KalbTG with peptide arrays prepared by maskless array synthesis (U.S. Pat. Pub. No 2015/0185216 to Albert et al. filed on 19 Dec. 2014). The efficiency of the transamidation reaction between 1.4 million unique 5-mer peptides and a biotinylated amine donor was quantified on two arrays in parallel and the sequences of the peptides with the highest turnovers were determined (FIG. 4A). The nine best peptides were resynthesized and tested for KalbTG activity in a standalone GLDH-coupled assay. Note that the array signal for the sequence MLAQG (SEQ ID NO:13) is marked not applicable (n. a.) as this sequence was not included on the array. Similarly, measurement of a background signal was only applicable to experiments performed on the array.
as §1
Target sequence in this assay (as listed by the source): as above
To test KalbTG specificity for glutamine-containing substrate, N-(biotinyl)cadaverine was used as a substitute for a lysine substrate to biotinylate glutamine-peptides on a peptide array. KalbTG labeling reaction was performed in 1200 μL 100 mM Tris-HCl pH 8, 1 mM DTT, 50 μM N-(biotinyl)cadaverine, 0.2 ng μl^−1 KalbTG in SecureSeal™ chamber (Grace Bio-Labs) at 37° C. for 45 minutes. After incubation the chamber was removed and the array was washed in 20 mM Tris-HCl, pH7.8, 0.2 M NaCl, 1% SDS for 1 minute followed by a 1 minute wash in 20 mM Tris-HCl. Biotin linked to the array was stained with 0.3 μg ml^−1 Cy5-streptavidin in 10 mM Tris-HCl, pH7.4, 1% alkali-soluble casein, 0.05% TWEEN-20 non-ionic detergent at room temperature for 1 hour. Cy5 fluorescence intensity was measured with a fluorescence scanner at a resolution of 2 μm and a wavelength of 635 nm.

[4] = 100 μM amine substrate, 200 μM glutamine-donor substrate
[5] = 100 μM glutamine-containing substrate, 500 μM amine-donor substrate

| Molecule | Array signal (log2) [1] [log2] | Reaction rate in solution [2, 4] [pmol/s] | Reaction rate in solution [2, 5] [pmol/s] | Array signal (log2) [3] [log2] | Reaction rate in solution ([2]; 100 μM amine substrate, 200 μM glutamine-donor substrate, listed as cadaverine) [pmol/s] |
| --- | --- | --- | --- | --- | --- |
| RYGKS (Cbz-RYGKS) [KalbTG lysine 5-mer] | 12.38 | 2.66 ± 0.11 |  |  |  |
| QYRQR (Cbz-QYRQR) [KalbTG glutamine-donor 5-mer] |  |  | 1.92 ± 0.07 | 8.70 |  |
| YKYRQ (Cbz-YKYRQ) [KalbTG glutamine-donor 5-mer, lysine-containing] |  |  | 4.00 ± 0.18 | 8.70 |  |
| FRQRG (Cbz-FRQRG) [KalbTG glutamine-donor 5-mer] |  |  | 2.11 ± 0.13 | 8.82 |  |
| QRQRQ (Cbz-QRQRQ) [KalbTG glutamine-donor 5-mer] |  |  | 2.98 ± 0.01 | 8.77 |  |
| FRQRQ (Cbz-FRQRQ) [KalbTG glutamine-donor 5-mer] |  |  | 3.07 ± 0.17 | 8.93 |  |
| RYESK (Cbz-RYESK) [KalbTG lysine (K-tag) 5-mer] | 12.65 | 4.47 ± 0.16 |  |  |  |
| ARSKL (Cbz-ARSKL) [preferred MTG lysine substrate, reference compound] | 12.0 | 3.87 ± 0.31 |  |  |  |
| NCCCCCN [Cadaverine, reference compound] |  | 3.51 ± 0.12 |  |  | 3.51 ± 0.12 |
| RYSQR (Cbz-RYSQR) [KalbTG glutamine-donor 5-mer] |  |  | 3.22 ± 0.10 | 8.93 |  |
| AYRTK (Cbz-AYRTK) [KalbTG lysine 5-mer] | 12.57 | 3.65 ± 0.17 |  |  |  |
| RQRQR (Cbz-RQRQR) [KalbTG glutamine-donor 5-mer] |  |  | 2.06 ± 0.08 | 8.84 |  |
| RYRSK (Cbz-RYRSK) [KalbTG lysine 5-mer] | 12.45 | 3.26 ± 0.10 |  |  |  |
| YKGRG (Cbz-YKGRG) [KalbTG lysine 5-mer] | 12.25 | 3.01 ± 0.09 |  |  |  |
| RYSKY (Cbz-RYSKY) [KalbTG lysine (amine-donor) 5-mer] | 12.75 | 3.89 ± 0.04 |  |  |  |
| RYRQR (Cbz-RYRQR) [KalbTG glutamine-donor 5-mer] |  |  | 3.60 ± 0.12 | 8.96 |  |
